Results: the supplement of paper PMC10307832

How the values were obtained:
Assay in all cases: relative viability (nuclei count vs DMSO), 5 days (fraction); higher = more cells survive
Midostaurin = compound: CO[C@@H]1[C@H](N(C)C(=O)c2ccccc2)C[C@H]2O[C@]1(C)n1c3ccccc3c3c4c(c5c6ccccc6n2c5c31)C(=O)NC4 [Midostaurin]
Method in brief: (§1)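 On vehicle-anchored 1536-well plates, lung cancer cell lines held overnight at 37 °C were pinned with five library-drug doses (not always all listed) spaced by √10. With no medium change over 5 days, they were then fixed, permeabilised and Hoechst-stained in one step and imaged at 4×. MetaXpress counted nuclei, and viability is the median across plates of treated-well over vehicle-well nuclei. Acceptance needed control CV below 25% and at least one doubling.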

[1] = compound: COc1cc(-c2nn([C@H]3CC[C@H](N4CCN(C(C)=O)CC4)CC3)c3ncnc(N)c23)ccc1NC(=O)c1cc2ccccc2n1C
Method in brief: as §1

[2] = compound: COc1cc(-c2nn([C@H]3CC[C@H](N4CCN(C(C)=O)CC4)CC3)c3ncnc(N)c23)ccc1NC(=O)c1cc2ccccc2n1C + Nc1nc2[nH]cc(CCc3ccc(C(=O)N[C@@H](CCC(=O)O)C(=O)O)cc3)c2c(=O)[nH]1 [Pemetrexed] (partner 0.2 µM)
Method in brief: (§2)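 A single step with final 0.05% Triton X-100, 1% formaldehyde and 1 ug/ml Hoechst fixed the cells and stained nuclei 5 days after treatment. Lung cancer cell lines in 1536-well plates had been treated by pin tool the day after seeding with one drug alone or a fixed anchor-drug dose plus five library-drug doses (not always all listed) in √10 steps, and nuclei were counted on 4× images. Relative viability is the ratio of nuclei in treated wells to nuclei in vehicle wells, taken as the median of duplicate plates.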

Midostaurin + Alpelisib = compound: CO[C@@H]1[C@H](N(C)C(=O)c2ccccc2)C[C@H]2O[C@]1(C)n1c3ccccc3c3c4c(c5c6ccccc6n2c5c31)C(=O)NC4 [Midostaurin] + Cc1nc(NC(=O)N2CCC[C@H]2C(N)=O)sc1-c1ccnc(C(C)(C)C(F)(F)F)c1 [Alpelisib] (partner 2 µM)
Method in brief: as §2

[3] = compound: COc1cc(-c2nn([C@H]3CC[C@H](N4CCN(C(C)=O)CC4)CC3)c3ncnc(N)c23)ccc1NC(=O)c1cc2ccccc2n1C + Cc1nc(Nc2ncc(C(=O)Nc3c(C)cccc3Cl)s2)cc(N2CCN(CCO)CC2)n1 [Dasatinib] (partner 0.075 µM)
Method in brief: as §2

Row | Cell Line | relative viability (Midostaurin; 0.01 µM) | relative viability (Midostaurin; 0.03162 µM) | relative viability (Midostaurin; 0.1 µM) | relative viability (Midostaurin; 0.3162 µM) | relative viability ([1]; 0.0128 µM) | relative viability ([1]; 0.04048 µM) | relative viability ([1]; 0.128 µM) | relative viability ([1]; 1.28 µM) | relative viability ([2]; first compound 0.0128 µM) | relative viability ([2]; first compound 0.04048 µM) | relative viability ([2]; first compound 0.128 µM) | relative viability ([2]; first compound 1.28 µM) | relative viability (Midostaurin + Alpelisib; first compound 0.01 µM) | relative viability (Midostaurin + Alpelisib; first compound 0.03162 µM) | relative viability (Midostaurin + Alpelisib; first compound 0.1 µM) | relative viability (Midostaurin + Alpelisib; first compound 0.3162 µM) | relative viability ([3]; first compound 0.0128 µM) | relative viability ([3]; first compound 0.04048 µM) | relative viability ([3]; first compound 0.128 µM) | relative viability ([3]; first compound 1.28 µM)
1 | NCI-H2023 | 1.07 | 0.893 | 0.922 | 0.59 | 1.02 | 1.13 | 0.923 | 0.906 | 0.258 | 0.211 | 0.229 | 0.242 | 0.608 | 0.563 | 0.526 | 0.583 | 0.559 | 0.668 | 0.524 | 0.663
2 | NCI-H2085 | 1.06 | 0.889 | 1.02 | 0.919 | 1.01 | 1.01 | 0.99 | 0.992 | 0.915 | 0.86 | 0.81 | 0.539 | 0.961 | 0.9 | 0.907 | 0.788 | 0.237 | 0.246 | 0.249 | 0.219
3 | NCI-H2087 | 0.972 | 0.938 | 0.985 | 1.26 | 1.09 | – | 1.1 | 1.11 | 0.601 | – | 0.697 | 0.707 | 1.2 | 0.978 | 1.05 | 1.06 | 1.11 | – | 0.733 | 0.857
4 | NCI-H2126 | 1.02 | 0.872 | 0.999 | 1.02 | 1.04 | 1.01 | 0.963 | 0.792 | 0.621 | 0.656 | 0.669 | 0.618 | 0.772 | 0.733 | 0.765 | 0.804 | 0.635 | 0.609 | 0.626 | 0.506
5 | NCI-H2170 | 0.973 | 0.941 | 1.01 | 1 | 1.07 | 0.996 | 0.991 | 0.821 | 0.267 | 0.275 | 0.296 | 0.253 | 0.828 | 0.856 | 0.722 | 0.707 | 0.554 | 0.494 | 0.559 | 0.592
6 | NCI-H2228 | 1.02 | 0.969 | 1.22 | 1.18 | 1.22 | 1 | 1.12 | 0.744 | 0.362 | 0.348 | 0.31 | 0.322 | 0.891 | 0.762 | 0.7 | 0.695 | 0.474 | 0.436 | 0.52 | 0.456
7 | NCI-H2347 | 1.12 | 0.97 | 1.06 | 1.09 | 1.01 | 0.781 | 1.04 | 1.08 | 0.45 | 0.447 | 0.431 | 0.382 | 0.995 | 0.988 | 0.964 | 0.992 | 0.262 | – | 0.333 | 0.308
8 | NCI-H2405 | 1.01 | 1.05 | 0.883 | 1.07 | 1.06 | 0.667 | 0.964 | 0.526 | 1.02 | 0.698 | 0.991 | 0.426 | 0.87 | 0.903 | – | 0.573 | 0.252 | 0.216 | 0.192 | 0.179
9 | NCI-H3122 | 1.03 | 0.962 | 0.95 | 1.05 | 1.07 | – | 0.987 | 0.76 | 0.19 | – | 0.201 | 0.194 | 0.86 | 0.683 | 0.924 | 0.878 | 0.854 | – | 0.775 | 0.809
10 | PC-3 [JPC-3] | 0.991 | 0.907 | 1.07 | 1.1 | 1.01 | 1.09 | 1.01 | 1.09 | 0.971 | 1.15 | 1.02 | 1.15 | 1 | 0.925 | 1.02 | 1.04 | 0.985 | 0.881 | 0.922 | 1.03
11 | PC-14 | 0.995 | 0.988 | 0.963 | 0.961 | 1.09 | 1.13 | 0.957 | 1.08 | 0.136 | 0.118 | 0.136 | 0.133 | 0.827 | 0.896 | 0.891 | 0.785 | 0.243 | 0.265 | 0.282 | 0.278
12 | RERF-LC-KJ | 1.02 | 1.01 | 1.04 | 1.04 | 1 | 0.991 | 0.94 | 0.896 | 0.489 | 0.494 | 0.47 | 0.46 | 0.846 | 1.02 | 0.924 | 0.969 | 0.816 | 0.76 | 0.772 | 0.794
13 | SK-LU-1 | 0.976 | 1.05 | 1.02 | 0.953 | 1.08 | 0.994 | 0.864 | 0.597 | 1.06 | 1.03 | 0.936 | 0.686 | 0.913 | 1.17 | 0.894 | 0.647 | 0.201 | 0.236 | 0.211 | 0.243
14 | SK-MES-1 | 0.998 | 0.92 | 0.967 | 0.89 | 1.02 | 1.07 | 1.01 | 0.912 | 1.08 | 0.994 | 0.904 | 0.755 | 0.886 | 0.818 | 0.986 | 0.671 | 0.44 | 0.34 | 0.378 | 0.384
15 | SW 1573 | 0.991 | 1.08 | 1.05 | 0.969 | 0.926 | 0.922 | 0.982 | 0.766 | 0.862 | 0.754 | 0.885 | 0.759 | 0.73 | 0.721 | 0.805 | 0.618 | 0.496 | 0.743 | 0.627 | 0.612
